{"source": "paper PMC4865847", "about": "“Putative histidine kinase inhibitors with antibacterial effect against multi-drug resistant clinical isolates identified by in vitro and in silico screens” (Scientific Reports, 2016)", "key": {"Streptococcus pneumoniae": {"system": "Streptococcus pneumoniae", "test": "Antibacterial susceptibility testing (MIC), S. pneumoniae", "assay_type": "cell-based", "conditions": "strain 49619", "protocol": "(§1) Bacterial strains used in this study for antibacterial susceptibility testing (Table S5) were propagated using standard microbiological procedures. Minimal inhibitory concentrations (MICs) were determined following a standard double-dilution method. MICs were recorded as the lowest concentration of the compound where no visible growth was observed. After plating the dilutions around the MIC or growing them in fresh MH media, minimal bactericidal concentration (MBC) was recorded as the lowest concentration of the compound at which no colonies were formed or no growth was observed, respectively. For S. pneumoniae MICs were determined by adapting the standard double-dilution method to anaerobic conditions and of this microorganism (use of Todd Hewitt Yeast extract with 200 U/mL of catalase and continuous monitoring of growth)."}, "S. aureus PhoR (PhoR^S)": {"target": "S. aureus PhoR (PhoR^S) (Staphylococcus aureus, UniProt Q2FXN7)", "sequence (Q2FXN7 entry or part of it)": "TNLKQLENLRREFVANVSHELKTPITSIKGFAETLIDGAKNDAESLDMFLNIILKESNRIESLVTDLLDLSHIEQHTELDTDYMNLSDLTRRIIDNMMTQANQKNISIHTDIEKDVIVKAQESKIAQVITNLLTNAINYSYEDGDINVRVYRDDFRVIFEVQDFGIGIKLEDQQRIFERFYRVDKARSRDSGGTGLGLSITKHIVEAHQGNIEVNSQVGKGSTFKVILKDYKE", "test": "In vitro autophosphorylation kinase assay with γ-32P-ATP, PhoR^S", "assay_type": "biochemical", "conditions": "for inhibition at 2000 µM: read-out: inhibition of PhoR^S autophosphorylation; for IC50: IC50 PhoR^S, autophosphorylation, one time point (30 sec), 10% DMSO", "outline": "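≈4 μM HK incubated with up to 20 mM fragment in 50 mM Tris HCl pH 8.5, 50 mM KCl, 5 mM MgCl2, 0.5 mM EDTA, 0.1 mM DTT; started with γ-32P-ATP (0.03–0.06 μM ATP final). Quenched with SDS sample buffer/EDTA, run on SDS-PAGE unheated, phosphoprotein quantified by phosphor-imaging.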"}, "HK NblS (CA domain)": {"system": "HK NblS (CA domain)", "test": "Differential scanning fluorimetry (DSF), NblS", "assay_type": "binding, Synechococcus sp. PCC 7942", "protocol": "(§2) To monitor protein unfolding, the fluorescent dye Sypro orange was used[26]. Differential scanning fluorimetry (DSF) experiments were conducted in the iCycleriQ Real Time Detection System (Bio-Rad, Hercules, CA). Solutions of 20 μl of 0.1 mg/ml protein (final concentration), 200 μM fragment cocktails or individual fragments (final concentration), 10X sypro orange (final concentration) and buffer (100 mM TrisCl pH 8, 150 mM NaCl) were added to the wells of the 96-well iCycler iQ PCR plate. The plate was heated from 20 to 85 or 99 °C at a heating rate of 1 °C/min. The fluorescent intensity was measured with Ex/Em: 490/530 nm. Prism GraphPad v.5 was used for curve fitting and statistical analysis."}, "[1]": {"target": "T1, HK WalK (DHp and CA domain) (Streptococcus pneumoniae, UniProt Q8DPL8)", "T1 construct": "WalK (amino acids from 208 to 449); N-terminal His6-3C site of vector pOPINF (own knowledge of the vector); made in house; host or cells: E. coli RIL", "T1 sequence (Q8DPL8 208-449)": "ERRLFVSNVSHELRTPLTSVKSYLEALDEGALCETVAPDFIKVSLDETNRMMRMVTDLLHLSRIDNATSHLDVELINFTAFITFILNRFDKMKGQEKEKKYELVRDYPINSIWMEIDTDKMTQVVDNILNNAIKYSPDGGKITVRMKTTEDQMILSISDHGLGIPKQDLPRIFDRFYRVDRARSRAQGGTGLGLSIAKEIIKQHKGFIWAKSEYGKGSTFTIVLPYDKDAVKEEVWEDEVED", "test": "Differential scanning fluorimetry (DSF), WalK", "assay_type": "binding", "protocol": "as §2"}, "S. pneumoniae WalK": {"target": "T2, S. pneumoniae WalK (Streptococcus pneumoniae, UniProt Q8DPL8)", "T2 construct": "WalK (amino acids from 208 to 449); N-terminal His6-3C site of vector pOPINF (own knowledge of the vector); made in house; host or cells: E. coli RIL", "T2 sequence (Q8DPL8 208-449)": "as above", "test": "In vitro autophosphorylation kinase assay with γ-32P-ATP, WalK", "assay_type": "biochemical", "outline": "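Autophosphorylation, initiated with γ-32P-ATP (0.1 μCi/μl; 0.03–0.06 μM ATP final), quenched with SDS/EDTA sample buffer, resolved by SDS-PAGE and quantified by phosphor-imaging. ≈4 μM kinase, fragments up to 20 mM, pH 8.5 Tris buffer with Mg2+; DMSO-matched ligand-free controls.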"}, "E. coli EnvZ": {"target": "T3, E. coli EnvZ (Escherichia coli, UniProt P0AEJ4)", "T3 construct": "The catalytic portion (DHp and CA domain) of E. coli PhoR (PhoR^E), E. coli EnvZ; made in house; host or cells: E. coli RIL", "T3 sequence (P0AEJ4 240-440)": "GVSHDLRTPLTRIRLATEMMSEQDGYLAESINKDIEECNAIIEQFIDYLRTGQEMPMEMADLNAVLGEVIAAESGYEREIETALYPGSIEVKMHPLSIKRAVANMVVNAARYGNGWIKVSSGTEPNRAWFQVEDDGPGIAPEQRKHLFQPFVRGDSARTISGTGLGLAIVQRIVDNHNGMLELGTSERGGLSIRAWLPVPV", "test": "Aggregation analysis by native-PAGE, EnvZ", "conditions": "2 mM, 10% DMSO", "protocol": "E. coli PhoR and EnvZ, and S. aureus PhoR ([…], final concentration) were prepared in kinase buffer. […] DMSO in the assays was maintained to a final concentration 10% (v/v). After 30 min of incubation at room temperature Native polyacrylamide gel electrophoresis (Native-PAGE) loading buffer was added and samples loaded. Coomassie blue staining was used for protein visualization."}, "NCI-60 tumor cell lines": {"system": "NCI-60 tumor cell lines", "parameters": "method as in PMID 11121759", "conditions": "2.72 μg/ml (10 μM), one dose; maximum over cell lines; cited from earlier work"}, "Gram positive strains": {"system": "Gram positive strains", "test": "Antibacterial susceptibility testing, Gram positive strains (summary)", "assay_type": "cell-based", "protocol": "as §1"}, "Gram negative strains": {"system": "Gram negative strains", "test": "Antibacterial susceptibility testing, Gram negative strains (summary)", "assay_type": "cell-based", "conditions": "read-out: MIC Gram negative", "protocol": "as §1"}}, "note": "“And” between values parts separate entries of the source, which are not always exact repeats. Equal entries are not always repeated.", "data": [{"smiles": "CC(C)(C)c1ccc(O)c(CNc2ccccc2)c1", "note": "[S1.14, 4-tert-butyl-2-[(phenylamino)methyl]phenol]", "values": [{"measurement": "MIC", "setting": "Streptococcus pneumoniae", "result": "> 500", "unit": "µg/mL"}, {"measurement": "inhibition at 2000 µM", "setting": "S. aureus PhoR (PhoR^S)", "result": "> 75", "unit": "%"}]}, {"smiles": "CC(=O)Nc1cccc(-c2ccccc2Cl)c1", "note": "[S1.7, N-[3-(2-chlorophenyl)phenyl]acetamide]", "values": [{"measurement": "MIC", "setting": "Streptococcus pneumoniae", "result": 128, "unit": "µg/mL"}, {"measurement": "IC50", "setting": "S. aureus PhoR (PhoR^S)", "result": "1000 µM and ~1000 µM"}, {"measurement": "inhibition at 2000 µM", "setting": "S. aureus PhoR (PhoR^S)", "result": "> 75", "unit": "%"}]}, {"smiles": "Nc1nc(-c2ccc(Br)cc2)cs1", "note": "[F1, 4-(4-bromophenyl)-1,3-thiazol-2-amine]", "values": [{"measurement": "increase of NblS Tm", "setting": "HK NblS (CA domain)", "result": 2.1, "unit": "°C"}, {"measurement": "increase of WalK Tm", "setting": "[1]", "result": 4.5, "unit": "°C"}, {"measurement": "IC50", "setting": "S. pneumoniae WalK; autophosphorylation, one time point (30 sec), 10% DMSO, read-out: IC50 WalK", "result": "> 2000", "unit": "µM"}, {"measurement": "inhibitory capacity for WalK autophosphorylation activity", "setting": "S. pneumoniae WalK; single concentration 5 mM, 30 sec", "result": "weak inhibitory capacity"}, {"measurement": "HK aggregation, EnvZ", "setting": "E. coli EnvZ", "result": "do not cause HK aggregation"}]}, {"smiles": "CC[C@H](c1ccc(O)cc1)[C@@H](CC)c1ccc(F)cc1", "note": "[S1.13, 4-[(3S,4R)-4-(4-fluorophenyl)hexan-3-yl]phenol]", "values": [{"measurement": "growth inhibition of NCI-60 cell lines", "setting": "NCI-60 tumor cell lines", "result": "≤ 19", "unit": "%"}, {"measurement": "MBC", "setting": "Gram positive strains; Staphylococcus aureus, MRSA, summary, read-out: MBCs against Gram-positives, including multi-drug resistant MRSA", "result": "≤ 16", "unit": "µg/mL"}, {"measurement": "MIC", "setting": "Gram positive strains; summary over Gram positive strains", "result": "≥ 8", "unit": "µg/mL"}, {"measurement": "MIC", "setting": "Streptococcus pneumoniae", "result": 16, "unit": "µg/mL"}, {"measurement": "IC50", "setting": "S. aureus PhoR (PhoR^S)", "result": 212, "unit": "µM"}, {"measurement": "inhibition at 2000 µM", "setting": "S. aureus PhoR (PhoR^S)", "result": "> 75", "unit": "%"}, {"measurement": "MIC", "setting": "Gram negative strains", "result": "> 500", "unit": "µg/mL"}]}]}
